Data taken from paper PMC9392260 (Journal of Inflammation Research, 2022).
Where two headings read alike, the source gives them in different places. One block for each molecule: values may come before it.

Legend:
Assay type in all cases: biochemical
[1] = molecular target: T1, COX-2 (Homo sapiens, UniProt P35354); test: fluorescent COX-2 inhibitor screening kit
T1 sequence (P35354 18-604): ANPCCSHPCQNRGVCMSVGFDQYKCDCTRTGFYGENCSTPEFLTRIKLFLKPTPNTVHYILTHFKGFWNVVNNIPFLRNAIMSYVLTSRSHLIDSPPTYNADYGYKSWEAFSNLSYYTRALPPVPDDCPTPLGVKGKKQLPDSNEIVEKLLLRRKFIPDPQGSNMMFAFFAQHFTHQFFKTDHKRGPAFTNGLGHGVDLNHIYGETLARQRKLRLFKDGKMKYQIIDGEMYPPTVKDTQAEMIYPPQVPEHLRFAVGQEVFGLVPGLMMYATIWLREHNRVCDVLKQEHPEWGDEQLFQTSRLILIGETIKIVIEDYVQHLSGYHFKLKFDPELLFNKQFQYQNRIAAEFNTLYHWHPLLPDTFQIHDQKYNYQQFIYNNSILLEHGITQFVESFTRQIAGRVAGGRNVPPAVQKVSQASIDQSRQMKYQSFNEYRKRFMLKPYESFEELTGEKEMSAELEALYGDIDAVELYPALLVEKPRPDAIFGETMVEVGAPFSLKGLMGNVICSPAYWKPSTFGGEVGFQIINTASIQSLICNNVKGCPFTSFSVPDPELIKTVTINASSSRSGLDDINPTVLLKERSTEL

[2] = molecular target: T1, COX-2; test: fluorescent COX-2 inhibitor screening kit; remark: listed apart in the source
[3] = molecular target: ACE2 (Homo sapiens, UniProt Q9BYF1); test: fluorescent ACE2 inhibitor screening kit
Chain of ACE2 (Q9BYF1 18-805): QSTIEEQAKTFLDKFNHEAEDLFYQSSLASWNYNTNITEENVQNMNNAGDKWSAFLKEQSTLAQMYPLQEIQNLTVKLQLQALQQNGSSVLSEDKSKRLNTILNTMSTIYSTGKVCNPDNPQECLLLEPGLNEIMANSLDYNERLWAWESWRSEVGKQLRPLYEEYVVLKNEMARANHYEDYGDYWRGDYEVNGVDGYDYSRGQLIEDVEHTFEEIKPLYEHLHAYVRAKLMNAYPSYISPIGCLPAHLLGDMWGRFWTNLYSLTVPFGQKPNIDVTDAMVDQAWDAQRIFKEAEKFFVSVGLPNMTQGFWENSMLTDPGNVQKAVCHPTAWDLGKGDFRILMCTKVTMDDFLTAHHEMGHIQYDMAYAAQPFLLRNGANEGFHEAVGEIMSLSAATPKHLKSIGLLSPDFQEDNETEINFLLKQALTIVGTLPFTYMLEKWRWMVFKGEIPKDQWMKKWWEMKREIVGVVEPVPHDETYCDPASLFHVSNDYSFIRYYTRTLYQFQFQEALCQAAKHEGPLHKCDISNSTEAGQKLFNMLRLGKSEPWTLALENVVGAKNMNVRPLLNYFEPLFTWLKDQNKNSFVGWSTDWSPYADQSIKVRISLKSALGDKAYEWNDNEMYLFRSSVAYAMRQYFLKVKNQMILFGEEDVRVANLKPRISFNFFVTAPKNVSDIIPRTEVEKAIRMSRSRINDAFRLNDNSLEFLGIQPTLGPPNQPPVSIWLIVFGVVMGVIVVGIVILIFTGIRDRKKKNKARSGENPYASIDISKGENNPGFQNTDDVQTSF

Compound: COc1cc([C@@H]2c3cc4c(cc3[C@H](O)[C@H]3COC(=O)[C@H]23)OCO4)cc(OC)c1OC [compound 12, Podophyllotoxin]
IC50 [1]: 10.5 ± 0.61 µM

IC50 [2]: 0.36 ± 0.02 µM
Compound: O=c1c(O)c(-c2ccc(O)cc2)oc2cc(O)cc(O)c12 [compound 11, Kaempferol]

IC50 [3]: 135 ± 6.54 µM
Compound: O=c1c(O[C@@H]2O[C@H](CO)[C@@H](O)[C@H](O)[C@H]2O)c(-c2ccc(O)c(O)c2)oc2cc(O)cc(O)c12 [compound 5, Quercetin 3-O-glucoside]
